The IC50 is the concentration needed to halve the response being measured. For orientation: AC50 means the concentration giving half of the maximal activity seen.

The source made the active and inactive calls. Where only a bound is given, the exact number is not on record here.

The target of one test is Phospholipase A2 (Homo sapiens, UniProt P04054). The class given is functional.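 Further: confirmatory dose-response counterscreen on phospholipase A2, testing hits that came from an ultra-high-throughput screen for ATG4B inhibitors.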
Another test deals with T1, Aminopeptidase N (Plasmodium falciparum FcB1/Columbia, UniProt O96935).
T1 sequence (O96935 whole entry): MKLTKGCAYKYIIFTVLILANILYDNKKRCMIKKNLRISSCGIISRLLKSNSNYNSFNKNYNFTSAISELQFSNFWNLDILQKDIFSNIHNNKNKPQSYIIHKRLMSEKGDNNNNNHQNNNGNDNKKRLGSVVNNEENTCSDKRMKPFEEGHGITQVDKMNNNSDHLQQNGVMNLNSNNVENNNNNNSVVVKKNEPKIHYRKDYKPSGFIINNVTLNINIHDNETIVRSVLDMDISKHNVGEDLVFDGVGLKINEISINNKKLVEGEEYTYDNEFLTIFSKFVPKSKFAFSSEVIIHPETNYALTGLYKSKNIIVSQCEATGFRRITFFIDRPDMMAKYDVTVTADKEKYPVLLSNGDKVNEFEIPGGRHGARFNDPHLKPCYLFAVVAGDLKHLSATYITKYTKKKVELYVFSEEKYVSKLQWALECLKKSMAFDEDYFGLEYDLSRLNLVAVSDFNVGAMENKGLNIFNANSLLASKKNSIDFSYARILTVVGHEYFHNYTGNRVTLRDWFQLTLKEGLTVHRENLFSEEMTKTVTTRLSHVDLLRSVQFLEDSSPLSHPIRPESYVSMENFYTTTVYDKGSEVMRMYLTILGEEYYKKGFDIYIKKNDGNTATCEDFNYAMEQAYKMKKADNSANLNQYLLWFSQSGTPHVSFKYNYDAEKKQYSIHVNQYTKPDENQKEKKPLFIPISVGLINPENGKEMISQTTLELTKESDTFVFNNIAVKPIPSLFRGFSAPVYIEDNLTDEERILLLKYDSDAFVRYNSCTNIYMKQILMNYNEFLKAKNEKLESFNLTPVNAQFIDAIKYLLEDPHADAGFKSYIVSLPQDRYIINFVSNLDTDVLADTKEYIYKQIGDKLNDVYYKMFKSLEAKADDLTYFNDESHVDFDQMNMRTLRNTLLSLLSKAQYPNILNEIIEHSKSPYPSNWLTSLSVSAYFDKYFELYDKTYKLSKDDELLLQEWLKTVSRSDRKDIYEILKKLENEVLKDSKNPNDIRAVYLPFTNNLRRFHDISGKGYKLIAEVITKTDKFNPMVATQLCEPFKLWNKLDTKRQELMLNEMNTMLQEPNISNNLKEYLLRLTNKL
In words: malaria alanyl aminopeptidase activity blockers – biochemical, fluorogenic H-Leu-NHMec substrate, 1536-well (AID 1445). Set-up: species or system Plasmodium falciparum 3D7, 3D7.

The next test concerns the target Cysteine protease ATG4B (Homo sapiens, UniProt Q9Y4P1). It counts as functional.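 Further: Fluorescence-based dose-response confirmation assay measuring inhibition of ATG4B activity.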
The target in another test is T2, Hexokinase-1 (Homo sapiens, UniProt P19367).
T2 sequence (P19367 whole entry): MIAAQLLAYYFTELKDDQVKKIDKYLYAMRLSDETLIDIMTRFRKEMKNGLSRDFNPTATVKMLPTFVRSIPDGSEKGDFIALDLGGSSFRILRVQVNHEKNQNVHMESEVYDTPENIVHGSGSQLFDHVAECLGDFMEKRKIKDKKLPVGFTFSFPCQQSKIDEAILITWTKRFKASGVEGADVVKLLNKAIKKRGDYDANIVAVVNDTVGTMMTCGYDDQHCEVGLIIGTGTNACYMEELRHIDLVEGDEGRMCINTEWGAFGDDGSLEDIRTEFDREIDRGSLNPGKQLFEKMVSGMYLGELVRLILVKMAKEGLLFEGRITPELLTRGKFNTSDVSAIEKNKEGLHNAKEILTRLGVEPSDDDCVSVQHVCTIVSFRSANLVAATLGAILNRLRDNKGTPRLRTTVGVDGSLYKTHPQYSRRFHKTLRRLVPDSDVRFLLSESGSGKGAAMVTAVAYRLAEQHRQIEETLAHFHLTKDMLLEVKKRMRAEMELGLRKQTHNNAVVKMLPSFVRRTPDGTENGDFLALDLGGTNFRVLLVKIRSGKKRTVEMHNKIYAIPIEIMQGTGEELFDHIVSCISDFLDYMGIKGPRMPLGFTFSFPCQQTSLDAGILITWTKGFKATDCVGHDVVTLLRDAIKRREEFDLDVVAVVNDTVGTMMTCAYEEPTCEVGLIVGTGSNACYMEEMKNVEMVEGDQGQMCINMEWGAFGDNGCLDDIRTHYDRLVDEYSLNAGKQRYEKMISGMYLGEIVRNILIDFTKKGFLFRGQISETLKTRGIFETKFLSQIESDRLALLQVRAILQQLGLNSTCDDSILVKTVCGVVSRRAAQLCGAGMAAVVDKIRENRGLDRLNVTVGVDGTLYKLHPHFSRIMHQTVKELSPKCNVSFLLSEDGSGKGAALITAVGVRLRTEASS
In words: SAR analysis of small molecule inhibitors of hexokinase domain containing I (HKDC1) in the hexokinase 1 selectivity assay. [Related pubchem assays (depositor defined):AID493160, AID493190]. The class given is functional.

A further test addresses T3, Hexokinase HKDC1 (Homo sapiens, UniProt Q2TB90).
T3 sequence (Q2TB90 whole entry): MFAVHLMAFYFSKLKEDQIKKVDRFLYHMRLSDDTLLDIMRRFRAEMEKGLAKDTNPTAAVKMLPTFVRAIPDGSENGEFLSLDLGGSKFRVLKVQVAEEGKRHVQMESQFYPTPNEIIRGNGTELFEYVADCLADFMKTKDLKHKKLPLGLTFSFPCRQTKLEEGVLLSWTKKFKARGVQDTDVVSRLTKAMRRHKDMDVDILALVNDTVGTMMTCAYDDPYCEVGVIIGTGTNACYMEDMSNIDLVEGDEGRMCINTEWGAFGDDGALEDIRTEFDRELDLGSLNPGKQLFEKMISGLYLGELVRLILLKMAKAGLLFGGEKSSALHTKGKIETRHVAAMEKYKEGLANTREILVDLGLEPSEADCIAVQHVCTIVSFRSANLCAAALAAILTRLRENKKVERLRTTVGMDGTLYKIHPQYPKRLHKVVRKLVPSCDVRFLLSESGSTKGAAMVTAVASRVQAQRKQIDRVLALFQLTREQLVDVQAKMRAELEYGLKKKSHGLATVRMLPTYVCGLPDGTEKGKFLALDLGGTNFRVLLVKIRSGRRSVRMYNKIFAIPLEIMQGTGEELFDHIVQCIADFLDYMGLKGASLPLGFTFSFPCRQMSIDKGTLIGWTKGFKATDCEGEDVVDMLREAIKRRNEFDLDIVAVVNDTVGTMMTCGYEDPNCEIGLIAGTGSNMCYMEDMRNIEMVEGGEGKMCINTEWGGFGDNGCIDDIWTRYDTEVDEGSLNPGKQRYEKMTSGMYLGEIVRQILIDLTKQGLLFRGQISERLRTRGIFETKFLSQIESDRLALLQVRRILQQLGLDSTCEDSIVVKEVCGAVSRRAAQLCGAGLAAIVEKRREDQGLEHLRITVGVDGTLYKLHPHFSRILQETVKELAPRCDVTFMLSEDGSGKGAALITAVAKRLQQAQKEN
In words: SAR analysis of small molecule inhibitors of hexokinase domain containing I (HKDC1). [Related pubchem assays (depositor defined):AID493160, AID493190]. The class given is functional.

The target of test [1] is FAD-linked sulfhydryl oxidase ALR (Homo sapiens, UniProt P55789). In words: ALR-catalysed DTT oxidation blockers – biochemical, H2O2 detection, luminescence, cherry-pick, dose response (AID 493248).
Another test has as its target T4, Caspase-3 (Homo sapiens, UniProt P42574).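 Further: Dose-response selectivity test against caspase-3 for candidate inhibitors of sentrin-specific proteases (SENPs).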
T4 sequence (P42574 whole entry): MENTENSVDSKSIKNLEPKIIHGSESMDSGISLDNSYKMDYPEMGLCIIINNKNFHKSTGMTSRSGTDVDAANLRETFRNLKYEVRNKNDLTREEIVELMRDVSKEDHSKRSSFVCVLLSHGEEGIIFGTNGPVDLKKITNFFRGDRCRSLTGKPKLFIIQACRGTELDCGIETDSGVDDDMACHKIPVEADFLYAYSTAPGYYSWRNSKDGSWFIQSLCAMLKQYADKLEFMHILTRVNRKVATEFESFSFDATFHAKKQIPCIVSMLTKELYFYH
The class given is functional.

The target in test [2] is T5, Sentrin-specific protease 7 (Homo sapiens, UniProt Q9BQF6).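 Further: Luminescence-based dose-response confirmation of ultra-high-throughput screening hits, measuring inhibition of SENP7.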
T5 sequence (Q9BQF6 whole entry): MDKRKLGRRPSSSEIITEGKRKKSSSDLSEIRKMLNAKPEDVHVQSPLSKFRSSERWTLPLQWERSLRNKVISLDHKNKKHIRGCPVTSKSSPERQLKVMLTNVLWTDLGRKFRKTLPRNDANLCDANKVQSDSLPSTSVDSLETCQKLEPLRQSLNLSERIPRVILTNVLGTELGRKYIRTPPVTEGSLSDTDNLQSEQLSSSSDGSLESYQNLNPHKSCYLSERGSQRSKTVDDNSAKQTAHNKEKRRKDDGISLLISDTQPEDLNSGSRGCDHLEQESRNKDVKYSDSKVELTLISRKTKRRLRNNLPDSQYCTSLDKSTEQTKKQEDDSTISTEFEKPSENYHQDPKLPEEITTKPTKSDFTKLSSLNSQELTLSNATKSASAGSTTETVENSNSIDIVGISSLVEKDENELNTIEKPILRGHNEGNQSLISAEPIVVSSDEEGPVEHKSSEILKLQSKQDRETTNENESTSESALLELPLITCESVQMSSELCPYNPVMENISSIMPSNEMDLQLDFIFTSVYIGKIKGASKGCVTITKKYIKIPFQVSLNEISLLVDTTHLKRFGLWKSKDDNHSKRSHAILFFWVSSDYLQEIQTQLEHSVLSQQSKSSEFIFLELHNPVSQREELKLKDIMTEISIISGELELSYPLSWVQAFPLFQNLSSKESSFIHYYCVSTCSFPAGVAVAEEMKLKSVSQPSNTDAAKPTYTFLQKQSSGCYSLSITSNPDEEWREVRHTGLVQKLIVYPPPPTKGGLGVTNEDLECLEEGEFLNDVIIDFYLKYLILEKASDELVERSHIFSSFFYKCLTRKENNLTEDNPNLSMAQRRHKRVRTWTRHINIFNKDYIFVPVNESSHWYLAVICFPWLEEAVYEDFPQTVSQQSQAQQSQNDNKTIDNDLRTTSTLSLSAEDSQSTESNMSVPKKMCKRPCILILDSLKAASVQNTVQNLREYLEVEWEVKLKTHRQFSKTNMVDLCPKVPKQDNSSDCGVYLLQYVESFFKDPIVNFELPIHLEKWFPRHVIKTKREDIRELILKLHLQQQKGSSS
The class given is functional.

For test [3], the target named is T6, Sentrin-specific protease 8 (Homo sapiens, UniProt Q96LD8).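 Further: luminescence read-out of SENP8 inhibition, dose-response confirmation following an ultra-high-throughput screen.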
T6 sequence (Q96LD8 whole entry): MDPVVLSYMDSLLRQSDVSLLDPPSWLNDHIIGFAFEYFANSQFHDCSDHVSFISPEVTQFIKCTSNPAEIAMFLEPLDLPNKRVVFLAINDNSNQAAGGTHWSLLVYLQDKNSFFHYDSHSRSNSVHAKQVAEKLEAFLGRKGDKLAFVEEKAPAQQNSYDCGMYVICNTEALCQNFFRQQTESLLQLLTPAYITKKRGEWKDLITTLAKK
The class given is functional.

Test [4] addresses T7, Sentrin-specific protease 6 (Homo sapiens, UniProt Q9GZR1).
T7 sequence (Q9GZR1 whole entry): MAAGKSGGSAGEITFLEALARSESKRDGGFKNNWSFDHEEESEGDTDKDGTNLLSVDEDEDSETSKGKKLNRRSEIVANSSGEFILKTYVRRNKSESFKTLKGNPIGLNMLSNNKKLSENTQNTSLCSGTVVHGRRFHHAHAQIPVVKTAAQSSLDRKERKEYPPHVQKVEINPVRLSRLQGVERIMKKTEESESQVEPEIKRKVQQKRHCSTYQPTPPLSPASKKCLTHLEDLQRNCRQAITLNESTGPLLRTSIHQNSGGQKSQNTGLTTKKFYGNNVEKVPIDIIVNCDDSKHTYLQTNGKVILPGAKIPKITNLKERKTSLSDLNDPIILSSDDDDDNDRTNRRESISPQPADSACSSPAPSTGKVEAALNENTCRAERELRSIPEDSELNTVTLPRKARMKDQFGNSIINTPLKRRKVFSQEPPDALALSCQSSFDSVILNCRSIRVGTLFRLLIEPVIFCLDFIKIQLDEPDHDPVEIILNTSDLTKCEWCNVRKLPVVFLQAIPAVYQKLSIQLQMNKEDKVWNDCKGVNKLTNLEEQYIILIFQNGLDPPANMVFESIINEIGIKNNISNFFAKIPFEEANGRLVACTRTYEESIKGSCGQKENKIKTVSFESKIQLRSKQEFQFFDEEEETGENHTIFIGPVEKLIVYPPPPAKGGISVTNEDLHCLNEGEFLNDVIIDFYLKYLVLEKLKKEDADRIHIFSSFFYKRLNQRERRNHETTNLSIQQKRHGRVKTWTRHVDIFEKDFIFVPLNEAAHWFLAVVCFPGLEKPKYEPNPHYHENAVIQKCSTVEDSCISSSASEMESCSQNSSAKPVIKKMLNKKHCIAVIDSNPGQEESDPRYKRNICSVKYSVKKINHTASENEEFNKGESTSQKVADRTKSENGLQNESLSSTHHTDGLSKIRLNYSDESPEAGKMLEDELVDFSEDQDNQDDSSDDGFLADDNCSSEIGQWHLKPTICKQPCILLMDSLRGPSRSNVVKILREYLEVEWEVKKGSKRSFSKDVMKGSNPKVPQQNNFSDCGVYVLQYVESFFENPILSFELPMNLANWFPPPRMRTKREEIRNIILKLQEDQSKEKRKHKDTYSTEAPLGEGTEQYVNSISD
It counts as functional.

Chain of Cysteine protease ATG4B (Q9Y4P1 whole entry): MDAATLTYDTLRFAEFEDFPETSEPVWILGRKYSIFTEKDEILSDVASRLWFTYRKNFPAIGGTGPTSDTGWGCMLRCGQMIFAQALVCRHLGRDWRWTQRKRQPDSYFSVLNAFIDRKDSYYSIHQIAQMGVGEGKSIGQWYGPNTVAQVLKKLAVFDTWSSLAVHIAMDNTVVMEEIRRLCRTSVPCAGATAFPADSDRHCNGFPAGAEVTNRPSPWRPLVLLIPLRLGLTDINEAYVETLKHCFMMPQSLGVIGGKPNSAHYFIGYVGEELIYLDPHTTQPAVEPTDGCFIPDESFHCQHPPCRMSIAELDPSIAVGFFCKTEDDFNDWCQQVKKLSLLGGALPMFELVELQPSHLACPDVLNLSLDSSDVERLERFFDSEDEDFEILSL
Chain of FAD-linked sulfhydryl oxidase ALR (P55789 whole entry): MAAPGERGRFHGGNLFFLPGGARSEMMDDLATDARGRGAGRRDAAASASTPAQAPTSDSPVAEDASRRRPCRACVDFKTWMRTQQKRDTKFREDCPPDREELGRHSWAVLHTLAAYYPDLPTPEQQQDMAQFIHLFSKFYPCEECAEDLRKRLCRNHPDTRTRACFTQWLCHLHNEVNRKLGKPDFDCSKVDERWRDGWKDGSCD
Chain of Phospholipase A2 (P04054 whole entry): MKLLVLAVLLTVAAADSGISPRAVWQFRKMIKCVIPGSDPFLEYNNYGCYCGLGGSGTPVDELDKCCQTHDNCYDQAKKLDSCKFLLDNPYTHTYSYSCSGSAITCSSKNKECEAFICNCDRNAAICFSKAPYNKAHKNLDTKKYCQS

For the compound `COc1cc(/C=C/C(=O)O)cc(S(=O)(=O)Nc2cc(Cl)c(Cl)cc2Cl)c1OC`, the results for the IC50 at Phospholipase A2, at Aminopeptidase N and at Cysteine protease ATG4B were 34.1 µM (inactive), 94.2 µM (active) and 6.7 µM (active), respectively.
For `Cc1ccc(C(=O)Nc2nnc(SCc3ccc(C#N)cc3)s2)cc1`, the IC50 on Hexokinase-1 and at Hexokinase HKDC1 was > 80 µM (inactive) in each case.
Turning to `O=c1c2ccccc2nc(/C=C/c2ccc(Br)cc2)n1Cc1ccccc1`, the IC50 on Hexokinase-1 and at Hexokinase HKDC1 was > 80 µM (inactive) in each case.
With `C/C(=N/O)c1ccc2ccc3ccccc3c2c1`, in test [1], the half-maximal activity concentration (AC50) was 5.54 µM (active). In addition, the IC50 is 38 µM (active) on Caspase-3, 9.17 µM (active) in test [2], 21.6 µM (active) in [3] and 16.7 µM (active) in [4].

These data come from ChEMBL document CHEMBL1201862, “PubChem BioAssay data set” (2004).
